Measurements published in US20090281054A1, “COMPOSITIONS AND METHODS COMPRISING CAPURAMYCIN ANALOGUES” (priority 2008, published 2009).
Converted amounts (≈) assume the structure as drawn. Where two headings read alike, the source gives them in different places.

Key:
translocase I = translocase I (Escherichia coli, UniProt P0A6W3); assay: IC50 against translocase I; assay type: biochemical
[1] = tested on: M. smegmatis (MSMG; MC2155); assay: MIC by microdilution method in 7H9 broth; assay type: cell-based; settings: MSMG MC^2155, 72 hr
[2] = tested on: M. kansaii (MKN; ATCC12478 & 35775); assay: MIC by microdilution method in 7H9 broth; assay type: cell-based, M. kansasii; settings: Mycobacterium kansasii, read-out: MIC
M. avium complex (MAC) = assay: MIC by microdilution method in 7H9 broth; assay type: cell-based
MTB-H37Rv = assay: Post-antibiotic effect (PAE); assay type: cell-based, Mycobacterium tuberculosis
Protocol: PAE of SQ641. PAE of SQ641 was determined as described (Chan et al. Antimicrob. Agents Chemother., 2004, 48(1), 340-343). At the end of incubation, suspensions were diluted 1/25, and 0.1 ml was injected into each of triplicate BACTEC vials: drug dilution was 1000-fold in the BACTEC vials. Drug carryover controls (to ascertain absence of any carryover drug) consisting of the same MTB suspension as in the test and similar drug dilutions were mixed immediately, diluted 1/25, and 0.1 ml was injected into BACTEC vials. BACTEC vials were incubated at 37° C. and read in a BACTEC TB-460 reader every 24 hr until the cumulative GI in the control reached 999. PAE was calculated from the formula PAE=T−C, where T is the time required for the drug-exposed organisms to reach a cumulative GI of 100 and C is the time required for the controls to reach a cumulative GI of 100.
PAE determines the time required for the organisms to recover following exposure to an antimicrobial agent for a short duration. PAE activities of both SQ641 and INH, each at 4 μg/ml, were investigated with MTB-H37Rv. Following 2 hr of exposure to drugs, the PAE of INH was 17 hr as compared to 55 hr for SQ641. The PAE of SQ641 was over 3 times that of INH.

MTB [3] = assay: Activity in acidic pH (microdilution in 7H9 broth); assay type: cell-based, Mycobacterium tuberculosis; settings: pH 7.0 to 5.0
Source text: Activity in acidic pH. The pH in macrophage phagolysomes is ˜5.5. To be effective against intracellular organisms, anti-TB drugs should concentrate inside macrophages and be active in an acidic environment. The activity of SQ641 against MTB was investigated by microdilution method in 7H9 broth at different hydrogen ion concentrations.

MTB in J774A.1 cells = assay: Intracellular activity of SQ641 with efflux pump blockers; assay type: cell-based, Mycobacterium tuberculosis; settings: 4 days exposure
MTB [4] = assay: In vivo efficacy in mouse model of chronic TB disease (lung CFU); settings: mice treated for 3 wk, starting 3 wk after infection, gav, ip, iv
Protocol: In vivo activity against MTB. In vivo efficacy of CM analogues was investigated in a mouse model of chronic TB disease (FIG. 2). Three wk after infection, mice were treated for 3 wk with the drugs by gavage (gav), intraperitoneal injection (ip), intravenous injection (iv), or intranasal (in) routes. Efficacy was analyzed by determining Colony-Forming Units (CFU) in lungs. […] Each achieved a decrease of 1-log10 lung CFU compared to the late control [LC] CFU by at least one route, which varied for each drug.

[5] = tested on: Mycobacteria (all mycobacterial species tested); assay: In vitro MIC and MBC across mycobacterial species; assay type: cell-based; settings: NTM tested (Table 5)

translocase I, sequence (P0A6W3 whole entry): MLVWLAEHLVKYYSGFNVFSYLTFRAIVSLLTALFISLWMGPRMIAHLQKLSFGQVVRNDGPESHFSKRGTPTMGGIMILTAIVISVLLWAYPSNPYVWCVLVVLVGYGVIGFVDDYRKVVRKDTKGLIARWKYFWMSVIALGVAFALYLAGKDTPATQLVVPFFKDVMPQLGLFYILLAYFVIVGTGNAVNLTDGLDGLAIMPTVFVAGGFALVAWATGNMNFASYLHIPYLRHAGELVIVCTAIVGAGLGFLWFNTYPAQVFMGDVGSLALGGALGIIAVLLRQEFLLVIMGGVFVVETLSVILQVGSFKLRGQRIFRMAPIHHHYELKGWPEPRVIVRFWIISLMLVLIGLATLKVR

CCCCCCCCCC(=O)O[C@@H]1[C@H](OC)[C@@H]([C@@H](O[C@H]2OC(C(=O)N[C@H]3CCC[C@@H](C)NC3=O)=C[C@H](O)[C@@H]2O)C(N)=O)O[C@H]1n1ccc(=O)[nH]c1=O [SQ641]
IC50 against translocase I (translocase I): 0.55 µg/mL (≈ 0.745 µM)
MIC [1]: 2 µg/mL (≈ 2.71 µM)
MIC ([1]; Mycolicibacterium smegmatis, MC2155|MC^2155, read-out: MIC): 2 µg/mL (≈ 2.71 µM)
MIC ([2]; ATCC 12478 / ATCC 35775, MKN ATCC35775): 0.25 µg/mL (≈ 0.339 µM)
MIC ([2]; MKN ATCC12478): 1 µg/mL (≈ 1.36 µM)
MIC (M. avium complex (MAC); Mycobacterium avium, 336 h, MAC isolates, 2 wk, read-out: MIC (range)): 0.125 to 2 µg/mL (≈ 0.169 to 2.71 µM)
MIC (M. avium complex (MAC); Mycobacterium avium, MAC strain 100, read-out: MIC): 2 µg/mL (≈ 2.71 µM)
MIC (M. avium complex (MAC); Mycobacterium avium, MAC strain 101, read-out: MIC): 0.12 µg/mL (≈ 0.163 µM)
MIC (M. avium complex (MAC); Mycobacterium avium, MAC strain 104, read-out: MIC): 2 µg/mL (≈ 2.71 µM)
MIC (M. avium complex (MAC); Mycobacterium avium, MAC strain 109, read-out: MIC): 0.12 µg/mL (≈ 0.163 µM)
MIC (M. avium complex (MAC); Mycobacterium avium, MAC strain A5, read-out: MIC): 0.5 µg/mL (≈ 0.678 µM)
MIC (M. avium complex (MAC); Mycobacterium avium, MAC strain JSH1, read-out: MIC): 2 µg/mL (≈ 2.71 µM)
MIC (M. avium complex (MAC); Mycobacterium avium, MAC strain NIH C1-1, read-out: MIC): 0.5 µg/mL (≈ 0.678 µM)
MIC (M. avium complex (MAC); Mycobacterium avium, MAC strain NIH C1-2, read-out: MIC): 0.25 µg/mL (≈ 0.339 µM)
MIC (M. avium complex (MAC); Mycobacterium avium, MAC strain NIH C1-3, read-out: MIC): 2 µg/mL (≈ 2.71 µM)
MIC (M. avium complex (MAC); Mycobacterium avium, MAC strain NIH C1-4, read-out: MIC): 0.5 µg/mL (≈ 0.678 µM)
MIC90 (M. avium complex (MAC); Mycobacterium avium, MAC isolates, value in square brackets, read-out: MIC90): 2 µg/mL (≈ 2.71 µM)
MIC range (M. avium complex (MAC); ten MAC isolates (Table 6)): 0.125 to 2 µg/mL
PAE (post-antibiotic effect) (MTB-H37Rv; 4 μg/ml, 2 hr of exposure): 55 h
PAE of SQ641 relative to INH (MTB-H37Rv; each at 4 μg/ml): over 3 times
Activity at different hydrogen ion concentrations (MTB [3]): no loss
Mean RLU at Day 7 (MTB in J774A.1 cells; SQ641 1 μg/ml + CsA10 (12 μg/ml), Day 0 RLU 811, Control Day 7 3004): 342 RLU
Mean RLU at Day 7 (MTB in J774A.1 cells; SQ641 1 μg/ml + VE10 (5 μg/ml), Day 0 RLU 425, Control Day 7 6283): 686 RLU
Mean RLU at Day 7 (MTB in J774A.1 cells; SQ641 1 μg/ml, Day 0 RLU 425, Control Day 7 6283): 3866 RLU
Mean RLU at Day 7 (MTB in J774A.1 cells; SQ641 1 μg/ml, Day 0 RLU 811, Control Day 7 3004): 2233 RLU
Mean RLU at Day 7 (MTB in J774A.1 cells; SQ641 2 μg/ml + CsA10 (12 μg/ml), Day 0 RLU 811, Control Day 7 3004): 43 RLU
Mean RLU at Day 7 (MTB in J774A.1 cells; SQ641 2 μg/ml + VE10 (5 μg/ml), Day 0 RLU 425, Control Day 7 6283): 509 RLU
Mean RLU at Day 7 (MTB in J774A.1 cells; SQ641 2 μg/ml, Day 0 RLU 425, Control Day 7 6283): 2362 RLU
Mean RLU at Day 7 (MTB in J774A.1 cells; SQ641 2 μg/ml, Day 0 RLU 811, Control Day 7 3004): 1361 RLU
Mean RLU at Day 7 (MTB in J774A.1 cells; SQ641 4 μg/ml + CsA10 (12 μg/ml), Day 0 RLU 811, Control Day 7 3004): 28 RLU
Mean RLU at Day 7 (MTB in J774A.1 cells; SQ641 4 μg/ml + VE10 (5 μg/ml), Day 0 RLU 425, Control Day 7 6283): 368 RLU
Mean RLU at Day 7 (MTB in J774A.1 cells; SQ641 4 μg/ml, Day 0 RLU 425, Control Day 7 6283): 2329 RLU
Mean RLU at Day 7 (MTB in J774A.1 cells; SQ641 4 μg/ml, Day 0 RLU 811, Control Day 7 3004): 1476 RLU
Mean RLU at Day 7 (MTB in J774A.1 cells; SQ641 8 μg/ml + CsA10 (12 μg/ml), Day 0 RLU 811, Control Day 7 3004): 15 RLU
Mean RLU at Day 7 (MTB in J774A.1 cells; SQ641 8 μg/ml + VE10 (5 μg/ml), Day 0 RLU 425, Control Day 7 6283): 44 RLU
Mean RLU at Day 7 (MTB in J774A.1 cells; SQ641 8 μg/ml, Day 0 RLU 425, Control Day 7 6283): 1392 RLU
Mean RLU at Day 7 (MTB in J774A.1 cells; SQ641 8 μg/ml, Day 0 RLU 811, Control Day 7 3004): 850 RLU
Mean RLU at Day 7 (MTB in J774A.1 cells; SQ641 16 μg/ml + CsA10 (12 μg/ml), Day 0 RLU 811, Control Day 7 3004): 14 RLU
Mean RLU at Day 7 (MTB in J774A.1 cells; SQ641 16 μg/ml + VE10 (5 μg/ml), Day 0 RLU 425, Control Day 7 6283): 18 RLU
Mean RLU at Day 7 (MTB in J774A.1 cells; SQ641 16 μg/ml, Day 0 RLU 425, Control Day 7 6283): 654 RLU
Mean RLU at Day 7 (MTB in J774A.1 cells; SQ641 16 μg/ml, Day 0 RLU 811, Control Day 7 3004): 346 RLU
Mean RLU at Day 7 (MTB in J774A.1 cells; SQ641 32 μg/ml + CsA10 (12 μg/ml), Day 0 RLU 811, Control Day 7 3004): 11 RLU
Mean RLU at Day 7 (MTB in J774A.1 cells; SQ641 32 μg/ml + VE10 (5 μg/ml), Day 0 RLU 425, Control Day 7 6283): 12 RLU
Mean RLU at Day 7 (MTB in J774A.1 cells; SQ641 32 μg/ml, Day 0 RLU 425, Control Day 7 6283): 141 RLU
Mean RLU at Day 7 (MTB in J774A.1 cells; SQ641 32 μg/ml, Day 0 RLU 811, Control Day 7 3004): 113 RLU
Routes by which replication of MTB in lungs was prevented (vs early control) (MTB [4]): all but intranasal
MIC90 [5]: 2 µg/mL (≈ 2.71 µM)
